{
  "source": "paper PMC11620506",
  "about": "“Inhibition of endocytic uptake of severe acute respiratory syndrome coronavirus 2 and endo-lysosomal acidification by diphenoxylate” (Antimicrobial Agents and Chemotherapy, 2024)",
  "key": {"[1]": {"test_system": "SARS-CoV-2 Beta, GH(B.1.351), hCoV-19/Korea/KDCA55905/2021", "experiment": "microbe, parasite or virus in culture", "details": "Severe acute respiratory syndrome coronavirus 2, Vero"}, "[2]": {"test_system": "SARS-CoV-2 Omicron, GRA(B.1.1.529), hCoV-19/Korea/KDCA447321/2021", "details": "Vero cells"}, "[3]": {"test_system": "SARS-CoV-2 Alpha, GR(B.1.1.7), hCoV-19/Korea/KDCA51463/2021", "experiment": "microbe, parasite or virus in culture", "details": "Severe acute respiratory syndrome coronavirus 2, Vero"}, "[4]": {"test_system": "SARS-CoV-2 Gamma, GR(P.1), hCoV-19/Korea/KDCA95637/2021", "details": "for SI, ratio of CC50 to EC50: Gamma, Vero cells"}, "[5]": {"test_system": "SARS-CoV-2 Omicron, GRA(B.1.1.529), hCoV-19/Korea/KDCA447321/2021", "experiment": "microbe, parasite or virus in culture", "details": "Severe acute respiratory syndrome coronavirus 2, Vero"}, "[6]": {"test_system": "SARS-CoV-2 Alpha, GR(B.1.1.7), hCoV-19/Korea/KDCA51463/2021", "details": "Vero cells"}, "[7]": {"test_system": "SARS-CoV-2 Delta, G(B.1.617.2), hCoV-19/Korea/KDCA119861/2021", "details": "Vero cells"}, "[8]": {"test_system": "SARS-CoV-2 Gamma, GR(P.1), hCoV-19/Korea/KDCA95637/2021", "experiment": "microbe, parasite or virus in culture", "details": "Severe acute respiratory syndrome coronavirus 2, Vero"}, "[9]": {"test_system": "SARS-CoV-2 Delta, G(B.1.617.2), hCoV-19/Korea/KDCA119861/2021", "experiment": "microbe, parasite or virus in culture", "details": "Severe acute respiratory syndrome coronavirus 2, Vero"}, "[10]": {"test_system": "SARS-CoV-2 Beta, GH(B.1.351), hCoV-19/Korea/KDCA55905/2021", "details": "Vero cells"}},
  "data": [
    {"smiles": "CCOC(=O)C1(c2ccccc2)CCN(CCC(C#N)(c2ccccc2)c2ccccc2)CC1", "note": "[Diphenoxylate, diphenoxylate]", "values": [
      {"measurement": "EC50", "setting": "[1]", "result": "4.9 ± 0.3", "unit": "µM"},
      {"measurement": "SI, ratio of CC50 to EC50", "setting": "[2]", "result": "> 31.3"},
      {"measurement": "EC50", "setting": "[3]", "result": "1.9 ± 0.2", "unit": "µM"},
      {"measurement": "potency relative to remdesivir (times more potent)", "setting": "[4]", "result": "up to 6.5 times"},
      {"measurement": "SI, ratio of CC50 to EC50", "setting": "[4]", "result": "> 68.0"},
      {"measurement": "EC50", "setting": "[5]", "result": "3.2 ± 0.6", "unit": "µM"},
      {"measurement": "SI, ratio of CC50 to EC50", "setting": "[6]", "result": "> 52.5"},
      {"measurement": "SI, ratio of CC50 to EC50", "setting": "[7]", "result": "> 36.2"},
      {"measurement": "EC50", "setting": "[8]", "result": "1.5 ± 0.1", "unit": "µM"},
      {"measurement": "EC50", "setting": "[9]", "result": "2.8 ± 0.6", "unit": "µM"},
      {"measurement": "SI, ratio of CC50 to EC50", "setting": "[10]", "result": "> 20.4"}
    ]},
    {"smiles": "CCC(CC)COC(=O)[C@H](C)N[P@](=O)(OC[C@H]1O[C@@](C#N)(c2ccc3c(N)ncnn23)[C@H](O)[C@@H]1O)Oc1ccccc1", "note": "[RDV, remdesivir]", "values": [
      {"measurement": "EC50", "setting": "[1]", "result": "12.2 ± 0.4", "unit": "µM"},
      {"measurement": "SI, ratio of CC50 to EC50", "setting": "[2]", "result": "> 60.7"},
      {"measurement": "EC50", "setting": "[3]", "result": "7 ± 1", "unit": "µM"},
      {"measurement": "SI, ratio of CC50 to EC50", "setting": "[4]", "result": "> 10.3"},
      {"measurement": "EC50", "setting": "[5]", "result": "1.6 ± 0.5", "unit": "µM"},
      {"measurement": "SI, ratio of CC50 to EC50", "setting": "[7]", "result": "> 23.6"},
      {"measurement": "EC50", "setting": "[8]", "result": "9.7 ± 0.7", "unit": "µM"},
      {"measurement": "EC50", "setting": "[9]", "result": 4.2, "unit": "µM"},
      {"measurement": "SI, ratio of CC50 to EC50", "setting": "[10]", "result": "> 8.2"}
    ]}
  ]
}
